This experiment deals with T1, Progesterone receptor (Homo sapiens) (UniProt P06401).
T1 sequence (whole entry): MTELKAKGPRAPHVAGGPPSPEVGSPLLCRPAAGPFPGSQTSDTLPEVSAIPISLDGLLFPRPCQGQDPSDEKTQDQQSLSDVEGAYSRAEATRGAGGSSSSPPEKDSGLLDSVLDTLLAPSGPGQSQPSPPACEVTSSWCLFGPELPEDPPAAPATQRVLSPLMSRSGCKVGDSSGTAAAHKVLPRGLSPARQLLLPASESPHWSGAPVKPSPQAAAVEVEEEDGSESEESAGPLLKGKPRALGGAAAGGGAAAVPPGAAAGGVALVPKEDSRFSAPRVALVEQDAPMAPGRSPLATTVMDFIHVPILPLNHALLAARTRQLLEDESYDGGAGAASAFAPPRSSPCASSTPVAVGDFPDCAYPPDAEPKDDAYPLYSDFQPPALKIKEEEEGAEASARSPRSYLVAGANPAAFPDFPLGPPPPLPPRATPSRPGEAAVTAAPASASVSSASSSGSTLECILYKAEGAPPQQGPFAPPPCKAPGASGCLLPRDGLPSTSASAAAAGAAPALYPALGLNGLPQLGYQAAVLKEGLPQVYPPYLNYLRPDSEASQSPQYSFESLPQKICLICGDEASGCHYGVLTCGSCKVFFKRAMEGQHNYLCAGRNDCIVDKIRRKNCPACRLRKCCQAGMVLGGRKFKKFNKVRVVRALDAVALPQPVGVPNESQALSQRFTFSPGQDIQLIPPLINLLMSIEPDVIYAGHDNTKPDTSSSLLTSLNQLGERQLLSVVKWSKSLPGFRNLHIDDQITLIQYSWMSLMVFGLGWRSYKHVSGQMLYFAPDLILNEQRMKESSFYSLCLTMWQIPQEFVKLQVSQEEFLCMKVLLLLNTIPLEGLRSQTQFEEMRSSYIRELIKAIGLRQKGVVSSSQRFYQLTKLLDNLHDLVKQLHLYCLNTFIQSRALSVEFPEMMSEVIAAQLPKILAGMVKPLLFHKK
Kind of experiment: Antiprogestagenic activity at progesterone receptor in human T47D cells assessed as inhibition of progesterone-induced alkaline phosphatase activity relative to mifepristone. The format is cell-based. On the set-up: scale not given: the % may be the effect or the level left.

The text below walks through data of ChEMBL document CHEMBL1157577.

For the compound `CC#C[C@]1(O)CC[C@H]2[C@@H]3CCC4=CC(=O)CCC4=C3[C@@H](c3ccc(N(C)CCCCCC(=O)O)cc3)C[C@@]21C`, the Activity came out at 0.11%. The result for `CC#C[C@]1(O)CC[C@H]2[C@@H]3CCC4=CC(=O)CCC4=C3[C@@H](c3ccc(N(C)CCC(=O)O)cc3)C[C@@]21C` reads 0.15%.
